{"source": "patent US20250120912A1", "about": "“SYNERGISTIC NANOMEDICINE DELIVERING TOPOISOMERASE I TOXIN (SN-38) AND INHIBITORS OF POLYNUCLEOTIDE KINASE 3'-PHOSPHATASE (PNKP) FOR ENHANCED TREATMENT OF COLORECTAL CANCER” (THE GOVERNORS OF THE UNIVERSITY OF ALBERTA, priority 2021, published 2025)", "key": {"[1]": {"assay": "Water solubilized level of drug", "type": "physicochemical"}, "HCT116 [2]": {"test_system": "HCT116", "assay": "In vitro cytotoxicity assay (MTS)", "experimental": "(§2) Two CRC cell lines, HCT116 and HT-29 originally purchased from ATCC were used. The cells were cultured at 37° C. in 5% CO2 in a humidified incubator in a 1:1 mixture of Dulbecco's modified Eagle medium and F12 (DMEM/F12) supplemented with 10% FBS, 50 U/mL penicillin, 50 mg/mL streptomycin, 2 mmol/L L-glutamine, 0.1 mmol/L nonessential amino acids, and 1 mmol/L sodium pyruvate.\n(§3) In brief, 2×10^3 cells were plated in each well of 96-well flat-bottomed plates 24 h prior to the treatments. […] After different experimental incubation time points (24, 48, and 72 h), 20 μL of MTS reagent was added in each well and further incubated for 1 h at 37° C. before measuring the absorbance at 490 nm using BioTEK microplate reader. Each experiment was performed in quadruplicates."}, "[3]": {"assay": "In vitro drug release, dialysis-bag diffusion technique", "type": "physicochemical", "settings": "dialysis MWCO 3.5 kDa, 4% albumin in water, 37° C., n=3", "description": "[…] The concentrations of SN-38 in collected samples were determined by UV-Vis spectrophotometer (BioTEK, Winooski, VT, USA). Detection was performed at a wavelength of 383 nm. […] All experiments were carried out in triplicate."}, "[4]": {"settings": "literature [5]; cited from earlier work"}, "healthy CD-1 mice": {"test_system": "healthy CD-1 mice", "settings": "up to 50 mg/kg intravenously, Cremophor EL: Ethanol or micellar formulation [20]; cited from earlier work"}, "HCT116 [5]": {"test_system": "HCT116", "assay": "Western blot of cleaved PARP, γ-H2AX, cleaved caspase-3 and -7", "type": "cell-based, human", "settings": "HCT116, 10 μM, 6 h", "description": "(§1) In brief, 1×10^6 cells were plated in each well of 6-well plates 24 h prior to the treatments. […] The cells of 3 controls received only 0.1% DMSO, 10 μM A83, and 10 μM PM26/A83, respectively. Protein extracts for western blot analysis were prepared using commercial RIPA lysis buffer (ThermoFisher Scientific, Canada) supplemented with a cocktail of protease inhibitors (Millipore Sigma, Canada). Protein concentrations were measured using the BCA assay kit (Pierce/ThermoFisher Scientific, Canada) according to the manufacturer's protocol. Equal concentrations of protein were separated by SDS-PAGE and transferred to nitrocellulose membranes. After blocking with 5% skimmed milk in TBST (50 mM Tris-HCl, pH 7.4, 150 mM NaCl, and 0.1% Tween 20), the blots were incubated with the respective primary antibodies (cleaved caspase-3 cat #9661S, cleaved caspase-7 cat #9491S, PARP cat #9542S, phospho-histone H2A.X (Ser139) cat #9718S) and secondary antibody (HRP-linked anti-rabbit IgG cat #7074S) purchased from Cell Signaling Technology (Whitby, ON, Canada). The protein bands were detected using an enhanced chemiluminescence (ECL) based system (Pierce/ThermoFisher Scientific, Canada). The band intensities for the PNKP protein were quantified by performing optical density analysis using ImageJ software. Each experiment was carried out in triplicate."}, "HT-29 [6]": {"test_system": "HT-29", "assay": "Western blot of cleaved PARP, γ-H2AX, cleaved caspase-3 and -7", "type": "cell-based, human", "settings": "HT-29, 10 μM, 6 h", "description": "as §1"}, "HT-29 [7]": {"test_system": "HT-29", "assay": "In vitro cytotoxicity assay (MTS)", "settings": "Homo sapiens", "experimental": "as §2, §3"}}, "note": "Like-named read-outs stand apart in the source and are kept apart here.", "data": [{"smiles": "CCc1c2c(nc3ccc(O)cc13)-c1cc3c(c(=O)n1C2)COC(=O)[C@]3(O)CC", "note": "[SN-38, (S)-4, 11-Diethyl-4,9-di-OH-1, 12-dihydro-4H-2-oxa-6,12α-diaza-dibenzo[b, h]fluorene-3,13-dione]", "values": [{"measurement": "water solubilized level of SN-38", "setting": "[1]; unconjugated SN-38", "result": 25, "unit": "µg/mL"}, {"measurement": "IC50", "setting": "HCT116 [2]; read-out: IC50 (relative IC50), HCT116, 24 h, as TOP1 inhibitor concentration, A83B4C63 10 μM where present, n = 4", "result": "0.14 ± 0.04", "unit": "µM"}, {"measurement": "IC50", "setting": "HCT116 [2]; read-out: IC50 (relative IC50), HCT116, 48 h, as TOP1 inhibitor concentration, A83B4C63 10 μM where present, n = 4", "result": "0.05 ± 0.01", "unit": "µM"}, {"measurement": "IC50", "setting": "HCT116 [2]; read-out: IC50 (relative IC50), HCT116, 72 h, as TOP1 inhibitor concentration, A83B4C63 10 μM where present, n = 4", "result": "0.02 ± 0.01", "unit": "µM"}, {"measurement": "release of SN-38", "setting": "[3]; over 6 h", "result": "96.46±1.43", "unit": "%"}, {"measurement": "release of A83B4C63", "setting": "[3]; over 24 h", "result": "99.81±0.01", "unit": "%"}, {"measurement": "potency relative to the prodrug irinotecan", "setting": "[4]", "result": "1,000 times"}]}, {"smiles": "COc1ccccc1C(O)C1C=CC2C(=O)N(Cc3cccc4ccccc34)C(=O)C2N1Nc1ccc([N+](=O)[O-])cc1", "note": "(centres unmarked) [A83B4C63, 2-[hydroxy (2-methoxyphenyl)methyl]-6-(naphthalene-1-ylmethyl)-1-[(4-nitrophenyl)amino]-2H, 4aH, 7aH-pyrrolo[3,4-b]pyridine-5,7-dione]", "values": [{"measurement": "systemic and tissue toxicity", "setting": "healthy CD-1 mice", "result": "neither systemic nor tissue toxicity"}, {"measurement": "solubility", "setting": "[1]; water, without micelles", "result": 1, "unit": "µM"}, {"measurement": "IC50", "setting": "HCT116 [2]; Homo sapiens, HCT-116, read-out: relative IC50 of PNKP inhibitor alone", "result": "> 40", "unit": "µM"}, {"measurement": "apoptotic signaling", "setting": "HCT116 [5]", "result": "no apoptotic signaling"}, {"measurement": "apoptotic signaling", "setting": "HT-29 [6]", "result": "no apoptotic signaling"}, {"measurement": "release of A83B4C63", "setting": "[3]; over 6 h", "result": "98.81±2.09", "unit": "%"}, {"measurement": "IC50", "setting": "HT-29 [7]; HT-29, read-out: relative IC50 of PNKP inhibitor alone", "result": "> 40", "unit": "µM"}]}, {"smiles": "CCc1c2c(nc3ccc(OC(=O)N4CCC(N5CCCCC5)CC4)cc13)-c1cc3c(c(=O)n1C2)COC(=O)[C@]3(O)CC", "note": "[Irinotecan, 7-ethyl-10-[4-(1-piperidino)-1-piperidino] carbonyloxycamptothecin]", "values": [{"measurement": "IC50", "setting": "HCT116 [2]; Homo sapiens, HCT-116, 24 h, read-out: IC50 (relative IC50)", "result": "7.3 ± 3.7", "unit": "µM"}, {"measurement": "IC50", "setting": "HCT116 [2]; Homo sapiens, HCT-116, 48 h, read-out: IC50 (relative IC50)", "result": "3.9 ± 1.7", "unit": "µM"}, {"measurement": "IC50", "setting": "HCT116 [2]; Homo sapiens, HCT-116, 72 h, read-out: IC50 (relative IC50)", "result": "6.3 ± 1.6", "unit": "µM"}, {"measurement": "IC50", "setting": "HT-29 [7]; HT-29, 24 h, read-out: IC50 (relative IC50)", "result": "10.7 ± 4.5", "unit": "µM"}, {"measurement": "IC50", "setting": "HT-29 [7]; HT-29, 48 h, read-out: IC50 (relative IC50)", "result": "11.6 ± 4.3", "unit": "µM"}, {"measurement": "IC50", "setting": "HT-29 [7]; HT-29, 72 h, read-out: IC50 (relative IC50)", "result": 7.1, "unit": "µM"}]}]}
